Results as given in patent US9776127B2, “Reversible light driven gas absorbent solution and process” (Commonwealth Scientific and Industrial Research Organisation, priority 2013, dated 2017).

Assay: pKa of photoactive compound in ground and excited state
Assay type: physicochemical
Text: The operating range of the photoactive compound may be related to the difference in pKa between the excited and ground states of the photoactive molecule. The operating range may be ascertained by determining the pKa of the photoactive compound in its ground state (e.g. the base or relatively weak acid form) and the pKa of the compound in its excited state (e.g. the relatively strong acidic form). The difference in pKa between these two forms therefore defines the operating range of the photoactive compound. […] The requirement to select an amine for use with a photochromic molecule that results in an absorbent pH within the working range of the photochromic molecule can be illustrated by calculation. […] The pH of a mixture containing 0.5 M amine and 0.25 M MEH (ground state) as a function of absorbed CO2 and 0.5 M amine and 0.25 spiropyran (excited state) as function of absorbed CO2 was calculated using the published method Puxty, […]. Int. […]. Gas Control, 17 (2013), 215-224. The difference in pH of the absorbent at each concentration of absorbed CO2 is indicative of the ability of excitation to remove CO2 from the absorbent. […] Chem. Thermodynamics, 51 (2012), 97-102 and Fernandes, D., et al., J. Chem. Thermodynamics, 54 (2012), 183-191.

Row | pKa (excited state) | pKa (ground state) | pKa (aqueous solution, ground state, aqueous solution at room temperature) | SMILES
1 | 1.9 | 9.7 | – | O=[N+]([O-])CCc1c(O)ccc2ccccc12 [1-(2-nitroethyl)-2-naphthol]
2 | – | – | 7.8 | CC1(C)C(/C=C/c2ccccc2O)=[N+](CCCS(=O)(=O)[O-])c2ccccc21 [MEH]
